According to patent US20260234129A1, “NOVEL IMIDAZOLE DERIVATIVE AND USE THEREOF” (PELEMED CO., LTD., priority 2023, published 2026):
pIC50: −log10 of the molar value.

Key:
FLT3 = target: T1, FLT3 (Homo sapiens, UniProt P36888); assay: ADP-Glo kinase assay FLT3 WT; assay type: biochemical; settings: recombinant FLT3, 120 minutes at room temperature, read-out: Enzyme (IC50) FLT3 WT
T1 construct: Recombinant proteins containing FLT3 and FLT3(D835Y) domains were purchased from Promega; purchased Promega V4064
T1 sequence (P36888 610-943 limits assumed): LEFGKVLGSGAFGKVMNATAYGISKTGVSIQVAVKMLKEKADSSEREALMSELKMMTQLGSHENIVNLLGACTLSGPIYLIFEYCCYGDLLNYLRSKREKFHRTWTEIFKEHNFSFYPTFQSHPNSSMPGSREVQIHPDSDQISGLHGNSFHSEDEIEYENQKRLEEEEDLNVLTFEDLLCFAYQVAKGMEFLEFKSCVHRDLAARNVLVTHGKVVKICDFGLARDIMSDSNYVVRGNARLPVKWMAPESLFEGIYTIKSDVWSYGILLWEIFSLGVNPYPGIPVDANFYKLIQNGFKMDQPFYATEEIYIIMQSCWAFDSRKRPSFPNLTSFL
Method: FLT3 activity inhibition was measured using the ADP-Glo kinase assay method (Promega, cat #V9101). The ADP-Glo kinase assay method is a luminescent ADP detection assay method that provides a homogeneous, high-throughput screening method for measuring kinase activity by quantifying the amount of ADP produced during the kinase reaction.
The assay was performed in two steps. First, after the kinase reaction, an equal volume of ADP-Glo™ reagent was added to terminate the kinase reaction and deplete any remaining ATP. Second, a kinase detection reagent was added to convert ADP to ATP, and simultaneously the newly synthesized ATP was measured via the luciferase/luciferin reaction. The light produced was measured using a luminometer.
Recombinant proteins containing FLT3 and FLT3(D835Y) domains were purchased from Promega (cat #V4064, cat #V4514), respectively. According to the manufacturer's instructions, the optimal enzyme, ATP, and substrate concentrations were optimized using the ADP-Glo™ kinase assay method (Promega, USA). […] Thereafter, ADP-Glo™ reagent (5 μl) was added and reacted for an additional 40 minutes at room temperature. Finally, the detection reagent (kinase detection reagent, 10 μl) was added, followed by reaction at room temperature for 30 minutes, and the phosphorylation of the substrate peptide was measured by detecting the luciferase signal (integration time 0.5~1 sec) using a SpectraMax ID5 reader (Molecular Devices LLC., San Jose, CA, USA).

[1] = tested on: MV4-11 cells (FLT3-ITD-expressing AML cell line); assay: Cell proliferation inhibition, Alamar Blue; assay type: cell-based, human; settings: Homo sapiens, MV4-11, 72 hours of compound treatment, read-out: Cellular (GI50) MV4-11
Method: (§1) The cell proliferation inhibition experiment on acute myeloid leukemia (AML) cell lines was performed using FL3-ITD-expressing AML cell line MV4-11, BaF3-ITD-FLT3 F691L cell line, and BaF3-ITD-FLT3 D835Y cell line to test FLT3 inhibitory activity. All cell lines were human-derived cell lines, and the sources and culture conditions for each cell line are as follows.
(§2) Cell viability was assessed by a resazurin redox-based assay using the Alamar Blue Assay kit (Invitrogen, USA). Specifically, MV4-11, BaF3-ITD-FLT3-F691L, and BaF3-ITD-FLT3-D835Y cells were plated in 384-well plates at 8,000 cells in 45 μL of medium. As a negative control, dimethyl sulfoxide (DMSO) was added together with the compound. After three days (72 hours) of compound treatment, 5 μL of the Alamar Blue kit reagent was added to each well of the 384-well plates, followed by incubation at 37° C. for 2 hours in a humidified CO2 incubator. After incubation, fluorescence intensity (Flu) was measured at 544 nm and 590 nm using a SpectraMax iD3 Multi Mode Microplate Reader (Molecular Devices, ID3-STD).

[2] = tested on: BaF3-ITD-FLT3 D835Y cell line; assay: Cell proliferation inhibition, Alamar Blue; assay type: cell-based; settings: 72 hours of compound treatment, read-out: Cellular (GI50) BaF3-ITD-FLT3 D835Y
Method: as §1, §2

[3] = tested on: BaF3-ITD-FLT3 F691L cell line; assay: Cell proliferation inhibition, Alamar Blue; assay type: cell-based; settings: 72 hours of compound treatment, read-out: Cellular (GI50) BaF3-ITD-FLT3 F691L
Method: as §1, §2

| Structure (SMILES) | GI50 [1] [nM] | also measured |
| --- | --- | --- |
| NCCCNC(=O)c1ccc2[nH]nc(-c3nc4ccc(CN5CCOCC5)cc4[nH]3)c2c1 [Example 26, N-(3-aminopropyl)-3-(6-(morpholinomethyl)-1H-benzo[d]imidazol-2-yl)-1H-indazole-5-carboxamide] | 100 to 1000 | pIC50 (FLT3): > 8.00 |
| COc1ccc2nc(-c3n[nH]c4ccc(C(=O)NCCCN(C)C)cc34)[nH]c2c1 [Example 11, N-(3-(dimethylamino)propyl)-3-(6-methoxy-1H-benzo[d]imidazol-2-yl)-1H-indazole-5-carboxamide] | < 10 | pIC50 (FLT3): > 8.00 |
| Cc1ccc2nc(-c3n[nH]c4ccc(C(=O)NCCCN(C)C)cc34)[nH]c2c1 [Example 12, N-(3-(dimethylamino)propyl)-3-(6-methyl-1H-benzo[d]imidazol-2-yl)-1H-indazole-5-carboxamide] | < 10 | pIC50 (FLT3): > 8.00 |
| O=C(NCCCC(F)(F)F)c1ccc2[nH]nc(-c3nc4ccc(N5CCCC5)cc4[nH]3)c2c1 [Example 13, 3-(6-(pyrrolidin-1-yl)-1H-benzo[d]imidazol-2-yl)-N-(4,4,4-trifluorobutyl)-1H-indazole-5-carboxamide] | 10 to 100 | GI50 [2]: 10 to 100 nM; GI50 [3]: 10 to 100 nM |
| COCc1cnc(-c2n[nH]c3ccc(C(=O)NCCCN)cc23)[nH]1 [Example 114, N-(3-aminopropyl)-3-(5-(methoxymethyl)-1H-imidazol-2-yl)-1H-indazole-5-carboxamide] | > 1000 |  |
| NCCN1CCC(NC(=O)c2ccc3[nH]nc(-c4nc5ccccc5[nH]4)c3c2)CC1 [Example 112, N-(1-(2-aminoethyl)piperidin-4-yl)-3-(1H-benzo[d]imidazol-2-yl)-1H-indazole-5-carboxamide] | 10 to 100 |  |
| NCCCNC(=O)c1ccc2[nH]nc(-c3nc4ccc(Cl)cc4[nH]3)c2c1 [Example 27, N-(3-aminopropyl)-3-(6-chloro-1H-benzo[d]imidazol-2-yl)-1H-indazole-5-carboxamide] | 10 to 100 |  |
| O=C(NC1CCNCC1)c1ccc2[nH]nc(-c3nc4ccc(F)cc4[nH]3)c2c1 [Example 40, 3-(6-fluoro-1H-benzo[d]imidazol-2-yl)-N-(piperidin-4-yl)-1H-indazole-5-carboxamide] | 10 to 100 |  |
| CN(C)CCNC(=O)c1ccc2[nH]nc(-c3nc4ccc(F)cc4[nH]3)c2c1 [Example 35, N-(2-(dimethylamino)ethyl)-3-(6-fluoro-1H-benzo[d]imidazol-2-yl)-1H-indazole-5-carboxamide] | 10 to 100 |  |
| COc1c(Cl)cc(Cl)cc1-c1cnc(-c2n[nH]c3ccc(C(=O)NCCCN)cc23)[nH]1 [Example 87, N-(3-aminopropyl)-3-(5-(3,5-dichloro-2-methoxyphenyl)-1H-imidazol-2-yl)-1H-indazole-5-carboxamide] | 10 to 100 |  |
| NC1CCN(CCNC(=O)c2ccc3[nH]nc(-c4nc5ccccc5[nH]4)c3c2)CC1 [Example 8, N-(2-(4-aminopiperidin-1-yl)ethyl)-3-(1H-benzo[d]imidazol-2-yl)-1H-indazole-5-carboxamide] | 10 to 100 |  |
| N[C@H]1CC[C@H](NC(=O)c2ccc3[nH]nc(-c4nc5ccc(-c6ccco6)cc5[nH]4)c3c2)C1 [Example 80, N-((1S,3S)-3-aminocyclopentyl)-3-(6-(furan-2-yl)-1H-benzo[d]imidazol-2-yl)-1H-indazole-5-carboxamide] | < 10 | GI50 [2]: < 10 nM; GI50 [3]: 10 to 100 nM |
| CN(C)CCCNC(=O)c1ccc2[nH]nc(-c3nc4cc(F)c(F)cc4[nH]3)c2c1 [Example 9, 3-(5,6-difluoro-1H-benzo[d]imidazol-2-yl)-N-(3-(dimethylamino)propyl)-1H-indazole-5-carboxamide] | 10 to 100 |  |
| CN(C)CCCNC(=O)c1ccc2[nH]nc(-c3nc4ccc(F)cc4[nH]3)c2c1 [Example 36, N-(3-(dimethylamino)propyl)-3-(6-fluoro-1H-benzo[d]imidazol-2-yl)-1H-indazole-5-carboxamide] | 10 to 100 |  |
| CS(=O)(=O)NCCNC(=O)c1ccc2[nH]nc(-c3nc(-c4ccccc4)c[nH]3)c2c1 [Example 94, N-(2-(methylsulfonamido)ethyl)-3-(4-phenyl-1H-imidazol-2-yl)-1H-indazole-5-carboxamide] | > 1000 |  |
| NC1CCN(CCNC(=O)c2ccc3[nH]nc(-c4nc(-c5ccccc5)c[nH]4)c3c2)CC1 [Example 103, N-(2-(4-aminopiperidin-1-yl)ethyl)-3-(4-phenyl-1H-imidazol-2-yl)-1H-indazole-5-carboxamide] | > 1000 |  |
| O=C(c1ccc2[nH]nc(-c3nc4ccc(N5CCOCC5)cc4[nH]3)c2c1)N1C[C@@H]2C[C@H]1CN2 [Example 66, ((1S,4S)-2,5-diazabicyclo[2.2.1]heptan-2-yl)(3-(6-morpholino-1H-benzo[d]imidazol-2-yl)-1H-indazol-5-yl)methanone] | 10 to 100 |  |
| CNC1CCN(C(=O)c2ccc3[nH]nc(-c4nc5ccc(N6CCOCC6)cc5[nH]4)c3c2)CC1 [Example 70, (4-(methylamino)piperidin-1-yl)(3-(6-morpholino-1H-benzo[d]imidazol-2-yl)-1H-indazol-5-yl)methanone] | 10 to 100 |  |
| CC(=O)N1CC2(C1)CN(C(=O)c1ccc3[nH]nc(-c4nc5ccc(N6CCOCC6)cc5[nH]4)c3c1)C2 [Example 60, 1-(6-(3-(6-morpholino-1H-benzo[d]imidazol-2-yl)-1H-indazole-5-carbonyl)-2,6-diazaspiro[3.3]heptan-2-yl)ethan-1-one] | > 1000 |  |
| NCCCNC(=O)c1ccc2[nH]nc(-c3nc4ccc(Br)cc4[nH]3)c2c1 [Example 28, N-(3-aminopropyl)-3-(6-bromo-1H-benzo[d]imidazol-2-yl)-1H-indazole-5-carboxamide] | 10 to 100 |  |
| O=C(NCC1CNC1)c1ccc2[nH]nc(-c3nc4ccc(-c5ccoc5)cc4[nH]3)c2c1 [Example 75, N-(azetidin-3-ylmethyl)-3-(6-(furan-3-yl)-1H-benzo[d]imidazol-2-yl)-1H-indazole-5-carboxamide] | 10 to 100 | GI50 [2]: < 10 nM; GI50 [3]: 10 to 100 nM |
| NCCCNC(=O)c1ccc2[nH]nc(-c3ncc(-c4cccc(N)c4)[nH]3)c2c1 [Example 93, 3-(5-(3-aminophenyl)-1H-imidazol-2-yl)-N-(3-aminopropyl)-1H-indazole-5-carboxamide] | 100 to 1000 |  |
| CN(C)CCNC(=O)c1ccc2[nH]nc(-c3nc4ccc(N5CCOCC5)cc4[nH]3)c2c1 [Example 62, N-(2-(dimethylamino)ethyl)-3-(6-morpholino-1H-benzo[d]imidazol-2-yl)-1H-indazole-5-carboxamide] | < 10 |  |
| CN(C)CCCNC(=O)c1ccc2[nH]nc(-c3nc4ccc(C#N)cc4[nH]3)c2c1 [Example 10, 3-(6-cyano-1H-benzo[d]imidazol-2-yl)-N-(3-(dimethylamino)propyl)-1H-indazole-5-carboxamide] | 100 to 1000 |  |
| CN(C)CCOc1ccc2nc(-c3n[nH]c4ccc(C(=O)NCCCN)cc34)[nH]c2c1 [Example 24, N-(3-aminopropyl)-3-(6-(2-(dimethylamino)ethoxy)-1H-benzo[d]imidazol-2-yl)-1H-indazole-5-carboxamide] | 100 to 1000 |  |
| NCCCNC(=O)c1ccc2c(-c3nc4ccc(F)cc4[nH]3)n[nH]c2c1 [Example 110, N-(3-aminopropyl)-3-(6-fluoro-1H-benzo[d]imidazol-2-yl)-1H-indazole-6-carboxamide] | > 1000 |  |
